One data set deals with T1, FOXM1 protein (Homo sapiens, UniProt Q08050).
T1 construct: a terbium donor was attached to purified full length FOXM1 through a streptavidin-biotin linker
T1 sequence (Q08050 1-763): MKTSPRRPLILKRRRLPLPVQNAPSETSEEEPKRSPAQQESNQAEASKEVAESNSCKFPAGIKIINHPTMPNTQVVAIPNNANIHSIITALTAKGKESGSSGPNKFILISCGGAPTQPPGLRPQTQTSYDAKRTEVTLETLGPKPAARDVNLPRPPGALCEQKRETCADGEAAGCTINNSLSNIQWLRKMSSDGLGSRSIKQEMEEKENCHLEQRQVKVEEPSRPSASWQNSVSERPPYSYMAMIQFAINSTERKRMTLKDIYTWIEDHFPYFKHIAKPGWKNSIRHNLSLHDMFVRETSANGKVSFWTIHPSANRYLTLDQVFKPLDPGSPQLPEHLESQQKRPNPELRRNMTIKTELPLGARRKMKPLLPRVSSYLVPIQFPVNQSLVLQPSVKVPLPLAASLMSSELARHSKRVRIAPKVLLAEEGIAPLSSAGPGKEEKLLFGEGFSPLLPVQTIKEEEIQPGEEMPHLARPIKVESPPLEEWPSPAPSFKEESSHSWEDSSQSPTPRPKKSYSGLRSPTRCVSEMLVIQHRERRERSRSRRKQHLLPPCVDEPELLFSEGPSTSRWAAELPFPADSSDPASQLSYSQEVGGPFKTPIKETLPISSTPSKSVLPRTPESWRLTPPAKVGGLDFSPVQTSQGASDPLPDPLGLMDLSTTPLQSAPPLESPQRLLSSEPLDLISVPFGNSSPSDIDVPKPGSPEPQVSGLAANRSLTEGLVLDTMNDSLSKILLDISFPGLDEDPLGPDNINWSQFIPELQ
In words: Competitive binding of inhibitors to FOXM1 by tr-FRET (Fl-NB-72 probe). Particulars: tr-FRET competition with Fl-NB-72; Ki calculated from IC50 (Cheng-Prusoff). The protocol: Competitive binding assays of FOXM1 inhibitor binding to FOXM1 by tr-FRET were conducted. All tr-FRET experiments used FRET buffer (20 mM Tris, pH 7.5, 50 mM NaCl, 0.01% NP-40 detergent, 10% glycerol) with 0.3 mg/ml ovalbumin and 0.1 mM butylated hydroxy-anisole added fresh daily. Solutions of the protein, fluorescent probe and inhibitor dilutions were prepared at 3× the final concentrations, the final dilution taking place as they were mixed together on the microtiter plate.
Final concentrations were 10^-5M to 10^-9M, with the last point being buffer only, no inhibitor. Fluorescein-NB-72 (Fl-NB-72) was prepared at 1 mM in DMF and stored at −20° C. It was diluted into plain FRET buffer to give 100 nM in the assay.
Incubations were done in duplicate on black Molecular Devices 96-well microtiter plates. […] To this were added 5 μL of the inhibitor dilutions, mixed and incubated, in the dark, at room temperature, for 1 h. […] Diffusion-enhanced FRET was determined by a parallel incubation without biotin-FOXM1 and subtracted as a background signal. Graphs were prepared using Graph Pad/Prism 4.

The next data set relates to DT22 cells. Kind of data set: Cell proliferation assay (WST-1), DT22. Particulars: Homo sapiens, DT-22, inhibition of cell proliferation. In kind it is cell-based, human. The method, then: (§1) All cells were tested for mycoplasma using Real-Time PCR Mycoplasma Detection Kit (Akron Biotech, Boca Raton, FL).
(§2) All assays were performed in triplicate.

The subject of another data set is MCF7 cells. Kind of data set: Cell proliferation assay (WST-1), MCF7. In kind it is cell-based, human. The following applies: for IC50: Homo sapiens. The method, then: as §1, §2
A short description of data set [1]: Pharmacokinetic studies in mice after single s.c. or oral dose. Particulars: for half-life / AUC(0-t): female, CD-1, mouse, plasma; for Blood levels after oral administration / Blood levels after s.c. injection: doses of FIGS. 6A-6B.
Experimental: For s.c. injection, each compound was dissolved in DMSO and then mixed with corn oil for a total injection volume of 100 μL (10% DSMO+90% corn oil) per mouse. For oral gavage, compounds were administered in a 200 μL formulation of 9/0.5/0.5/90 parts of PEG400/Tween80/Povidone/0.5% Carboxymethylcellulose. […] Compounds were quantified by LC-MS/MS at the University of Illinois Metabolomics Core Facility. The data were fitted to a non-compartment model.
Data set [2] deals with DT22 triple negative human breast tumor xenografts. Kind of data set: DT22 triple negative breast tumor xenografts in NSG mice. In kind it is in vivo, mouse. The following applies: for Tumor growth in vivo, low doses: 5 or 10 mg/kg s.c. every second or third day; for Growth of DT22-Luc xenograft tumors, low doses: NB-115 s.c. daily 2 or 6 mg/kg, NB-63 s.c. daily 20 mg/kg until day 20, then 10 mg/kg every other day; for Animal body weight: same low-dose regimens as tumor study (FIG. 14B). The method, then: In vivo breast cancer xenograft studies For examination of the growth of triple-negative DT22 breast tumors, intact female NOD/SCID-gamma (NSG) mice were used. DT-22 cells (1×10^6 cells/mouse) were injected s.c. into the right axial mammary gland. Mice received s.c. injection or oral gavage daily or every second or third day, as indicated, with vehicle or FOXM1 inhibitor compound, and tumor growth was monitored over time.

In data set [3] the test system is tamoxifen-resistant MCF7 breast cancer cells. Kind of data set: Proliferation of tamoxifen-resistant MCF7 cells. It is filed as cell-based, human. Particulars: 6 days. The protocol: Values are mean±SD of three separate assays. Cell proliferation assay WST-1 assay (Roche, Basel, Switzerland) was used to quantify cell viability as described (Gong et al., Mol. Cell Endocrinol., 2016, 437:190-200). Absorbance was measured at 450 nm using a VICTOR X5 PerkinElmer 2030 Multilabel Plate Reader. All assays were performed in triplicate.

In the next data set the test system is MDA-MB-231 cells. In words: Cell proliferation assay (WST-1), MDA-MB-231. In kind it is cell-based, human. The following applies: Homo sapiens, MDA-MB-231; inhibition of cell proliferation; read-out: IC50 MDA-MB-231. The protocol: as §1, §2
For the next data set, the system named is breast cancer cell lines. In words: Proliferation of breast cancer cell lines (panel, line not specified). The following applies: cell line not specified or several lines. In kind it is cell-based, human. The method, then:
as §1, §2

Data set [4] relates to FOXM1 target genes in MCF7 cells. In words: FOXM1 target gene expression by qRT-PCR, MCF7. In kind it is cell-based, human. The following applies: MCF7, 24 h, at IC50 concentration. The protocol:
(§3) RNA was extracted from cells and expression of different genes was monitored by qRT-PCR. Assays were run in triplicate. Values are mean±SEM. *, p<0.05; **, p<0.01; ***, p<0.001. RNA isolation and real-time PCR Total RNA was isolated using TRIzol (Invitrogen) and reverse transcribed using […] reverse transcriptase (New England BioLabs). Real-time PCR was performed using SYBRgreen PCR Master Mix (Roche) as described (Bergamaschi et al., Breast Cancer Res., 2014, 16:436). Relative mRNA levels of genes were normalized to the housekeeping gene 36B4, and fold change calculated relative to the vehicle treated samples. Results are the average±SD from at least two independent experiments carried out in triplicate. Primer sequences for the genes studied were obtained from the Harvard Primer Bank. Sequences are available on their website.

Data set [5] concerns FOXM1 target genes in DT22 cells. In words: FOXM1 target gene expression by qRT-PCR, DT22. Particulars: DT22, 24 h, at IC50 concentration. It is filed as cell-based, human.
Text: as §3, with “Real-time PCR was performed using SYBRgreen PCR Master Mix (Roche) as described (Bergamaschi et al., Breast Cancer Res., 2014, 16:436).” left out

Where [6] appears, read: MCF7, inhibition of cell proliferation, read-out: IC50 MCF7.
Setting [7] is: sc, 40 mg/kg, PK s.c. AUC0-48, mice, 40 mg/kg s.c.

“Also recorded” adds a separate entry of the source. Like-named read-outs stand apart in the source and are kept apart here.

Consider `C[N+]1(CCCCCCOc2ccc(C(c3ccc(Cl)cc3)=C3C4C[C@H]5C[C@@H](C4)C[C@H]3C5)cc2)CCCC1` [NB-63], for which, at FOXM1 protein, the Ki was 76 nM. Also, the IC50 in the data set on DT22 cells was 6000 nM. In addition, in the data set with MCF7 cells (setting [6]), the IC50 was 5500 nM. Besides, the half-life in [1] (sc) fell in the range of 25 to 40 h. Also, the AUC(0-t) in data set [1] (setting [7]) worked out at 160 µM·h. The “PK p.o. AUC0-48” value in [1] (mice, 40 mg/kg p.o.) is “too low to measure”. The “Blood levels after oral administration” value in data set [1] (mice) is recorded as “very low levels”. Moreover, in data set [1] (mice, s.c.), the “AUC after s.c. administration relative to NB-55” value was “approximately 3 fold” and the “Blood levels after s.c. injection” value is recorded as “very high blood levels”. Besides, in data set [2], the “Tumor growth in vivo, low doses” value is “greatly suppress tumor growth”; the “Growth of DT22-Luc xenograft tumors, low doses” value was “suppress the growth; also recorded: effective in suppressing the growth”; the Animal body weight result is given as “do not affect; also recorded: little impact”.
On to `CC/C(=C(\c1ccc(O)cc1)c1ccc(OCCN(C)C)cc1)c1ccccc1` [trans-hydroxytamoxifen, reference compound], for which the “Effect on proliferation of tamoxifen-resistant MCF7 cells” value in data set [3] is reported as “weakly stimulated”.
Regarding `C[N+]1(CCCCCCOc2ccc(C(=C3C4CC5CC(C4)CC3C5)c3ccc(OCCCCCC[N+]4(C)CCCC4)cc3)cc2)CCCC1` [NB-68, 1,1′-((((((5r,7r)-adamantan-2-ylidene)methylene)bis(4,1-phenylene))bis(oxy))bis(hexane-6,1-diyl))bis(1-methylpyrrolidin-1-ium) diiodide], at FOXM1 protein, the Ki was 51 nM. Moreover, the IC50 was 700 nM in the data set with DT22 cells, 800 nM in the data set on MCF7 cells (setting [6]) and 1700 nM in the data set on MDA-MB-231 cells. The half-life is 18.5 h in data set [1] (po, 60 mg/kg); 25 to 40 h in data set [1] (sc); 109 h in data set [1] (sc, 60 mg/kg). Further, the AUC(0-t) in data set [1] (po, 60 mg/kg, PK p.o. AUC0-48, mice, 60 mg/kg p.o.) was 0.18 µM·h; in data set [1] (sc, 60 mg/kg, PK s.c. AUC0-48, mice, 60 mg/kg s.c.) it was 289 µM·h. Also, the “Blood levels after oral administration” value in [1] (mice) is recorded as “very low levels”. In addition, in data set [1] (mice, s.c.), the “Blood levels after s.c. injection” value was “very high blood levels”. Further, the “Tumor growth in vivo, low doses” value in [2] is on record as “greatly suppress tumor growth”. In data set [2] (s.c., 20 mg/kg every other day for first 10 days then 10 mg/kg every other day), the “Growth of DT22 tumor xenografts” value was “greatly suppress tumor growth”.
Regarding `c1cc(C(=C2C3CC4CC(C3)CC2C4)c2ccc(OCCCCCCN3CCCC3)cc2)ccc1OCCCCCCN1CCCC1` [NB-65, 1,1′-((((((5r,7r)-adamantan-2-ylidene)methylene)bis(4,1-phenylene))bis(oxy))bis(hexane-6,1-diyl))dipyrrolidine], the Ki on FOXM1 protein is 190 nM. Further, the “IC50 for inhibition of proliferation of breast cancer cell lines” value in the data set on breast cancer cell lines is recorded as “submicromolar”. The IC50 in the data set on DT22 cells worked out at 1000 nM; with MCF7 cells (setting [6]), 800 nM.
On to `CC[N+](C)(CC)CCCCCCOc1ccc(C(c2ccc(OCCCCCC[N+](C)(CC)CC)cc2)=C2C3C[C@H]4C[C@@H](C3)C[C@H]2C4)cc1` [NB-115, 6-(4-(((5r,7r)-adamantan-2-ylidene)(4-((6-(diethyl(methyl)-λ^4-azaneyl)hexyl)oxy)phenyl)methyl)phenoxy)-N,N-diethyl-N-methylhexan-1-aminium diiodide], for which, in [4], the “Expression of ATF3 (gene suppressed by FOXM1)” value is given as “increased” and the “Expression of FOXM1 stimulated target genes (FOXM1C, AURKB, CCNB1, PLK1)” value is listed as “significantly reduced”. Further, the IC50 in the data set with MCF7 cells (MCF7, read-out: IC50 MCF7) is 1100 nM. In [1] (sc), the half-life is 25 to 40 h. In data set [1] (setting [7]), this compound yielded an AUC(0-t) of 746 µM·h. Moreover, in data set [5], the “Expression of ATF3 (gene suppressed by FOXM1)” value was “increased” and the “Expression of FOXM1 stimulated target genes (FOXM1C, AURKB, CCNB1, PLK1)” value is listed as “significantly reduced”. Also, in [2], the “Tumor growth in vivo, low doses” value is “greatly suppress tumor growth”; the “Growth of DT22-Luc xenograft tumors, low doses” value is “suppress the growth; also recorded: effective in suppressing the growth”; the Animal body weight entry was “do not affect; also recorded: little impact”.
In the case of `CCN(CC)CCCCCCOc1ccc(C(c2ccc(OCCCCCCN(CC)CC)cc2)=C2[C@H]3C[C@@H]4C[C@@H](C[C@H]2C4)C3)cc1` [NB-51, 6,6′-(((((5r,7r)-adamantan-2-ylidene)methylene)bis(4,1-phenylene))bis(oxy))bis(N,N-diethylhexan-1-amine)], the Ki at FOXM1 protein was 130 nM. Besides, the values for the IC50 in the data set with DT22 cells and with MCF7 cells (setting [6]) were 1500 nM and 700 nM, respectively. In addition, in the data set on MCF7 cells (MCF-7 cells), the “Improvement in anti-proliferative activity versus monoamine NB-54” value is on record as around 5 fold. This compound had a half-life in [1] (po, 20 mg/kg) of 20.1 h. Moreover, the AUC(0-t) in [1] (po, 20 mg/kg, PK p.o. AUC0-48, mice, 20 mg/kg p.o. (footnote *)) is 1.8 µM·h; in data set [1] (sc, 20 mg/kg, PK s.c. AUC0-48, mice, 20 mg/kg s.c. (footnote *)) it was 4.7 µM·h.
